Measurements published in patent publication EP1311531B1, “STEROID DERIVED ANTIBIOTICS” (Brigham Young University, priority 2000, dated 2002).
In brackets after ≈: the same amount, converted by molar mass. Read-outs that look alike come from different tables or passages of the source.

Legend:
[1] = system: Salmonella typhimurium ATCC 14028; test: Sensitization to erythromycin, novobiocin or rifampicin (permeabilization, FIC); type: cell-based
Protocol: (§1) FICs can be performed by checkerboard titrations of compounds in one dimension of a microtiter plate, and of antibiotics in the other dimension, for example. The FIC is calculated by looking at the impact of one antibiotic on the MIC of the other and vice versa. […] Preferably, an FIC of less than 0.5 is obtained for synergism. As used herein, FIC can be determined as follows: FIC = (MIC(compound in combination))/(MIC(compound alone)) + (MIC(antibiotic in combination))/(MIC(antibiotic alone)) [formula]
(§2) Aliquots of 1 mL of the suspension were added to test tubes containing 1 mL TSB and incrementally varied concentrations of cholic acid derivatives and/or erythromycin or novobiocin. In the sensitization experiments, erythromycin or novobiocin were added 15 minutes later than the cholic acid derivatives. The samples were subjected to stationary incubation at 37°C for 24 hours. Sample turbidity was determined by measuring absorption at 760 nm (HP 8453 UV-Visible Chemstation, Hewlett Packard). Additionally, an alliquot from each of the samples showing no measurable turbidity was subcultured on TSA plates (alliquots were diluted to provide fewer than 300 CFU). Colonies that grew on the subculture after overnight incubation were counted and the number of CFU/mL in the samples were calculated. The calculated values were compared to the number of CFU/mL in the original inoculum.
(§3) Concentrations of 0.5, 1.0 or 3.0 µg/mL of these antibiotics were used, and the concentrations of the cholic acid derivatives required to inhibit bacterial growth of Gram-negative strains were determined.

[2] = system: Pseudomonas aeruginosa ATCC 27853; test: as above; type: cell-based; settings: for MBC: Pseudomonas aeruginosa; for MBC / concentration required to lower the MIC of erythromycin from 240 µg/mL to 5 µg/mL: Table 7, with erythromycin; for MBC / concentration required to lower the MIC of erythromycin from 240 µg/mL to 5 µg/mL / concentration required to lower the MIC of novobiocin from >500 µg/mL to 1 µg/mL: P. aureginosa (ATCC 27853); for concentration required to lower the MIC of novobiocin from >500 µg/mL to 1 µg/mL: Table 8, with novobiocin
Protocol: as §1, §2, §3

[3] = Minimum hemolytic concentration (MHC); type: cell-based; settings: Table 10
Protocol: Minimum inhibition concentrations (MIC) and minimum hemolytic concentrations (MHC) were measured as described in Li et al., Antimicrob. Agents. Chemother., 1999, 43, 1347. […]

E. coli (ATCC 10798) = test: MIC and MBC measurement; type: cell-based, Escherichia coli
Protocol: General: Microorganisms. Reference strains were purchased from the American Type Culture Collection (Rockville, MD) or Bactrol disks from Difeo Laboratories (Detroit, MI). […] Bacterial strains were maintained on Mueller-Hinton agar plates, and Candida albicans was maintained on Sabouraud Dextrose agar plates.
Aliquots (20 mL) of the homogeneous solution were then poured in sterile plastic petri dishes (100 x 15 mm, Fisher Scientific). Solutions of compounds were made by dissolving the HCl salt of the respective compound into an appropriate amount of deionized and sterilized water followed by microfiltration.
as §2, with “In the sensitization experiments, erythromycin or novobiocin were added 15 minutes later than the cholic acid derivatives. The samples were subjected to stationary incubation at 37°C for 24 hours. Sample turbidity was determined by measuring absorption at 760 nm (HP 8453 UV-Visible Chemstation, Hewlett Packard).” left out

[4] = system: Salmonella typhimurium ATCC 14028; test: Sensitization to erythromycin, novobiocin or rifampicin (permeabilization, FIC); type: cell-based; settings: Table 13; with rifampicin (order of b151); Salmonella typhimurium ATCC 14028^b (footnote b not given)
[5] = system: Candida albicans ATCC 90028; test: MIC and MBC measurement; type: cell-based; settings: ATCC90028, Table 10
In short: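 Tubes of TSB held stepped concentrations of the test compounds, given singly or combined with erythromycin or novobiocin, and MIC was taken as no measurable turbidity. For MBC, clear samples were plated on TSA, grown overnight, and their CFU/mL set against the starting inoculum.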

[6] = system: outer membrane of Gram-negative bacteria; test: Luciferin/luciferase luminescence assay of membrane permeabilization; type: cell-based, E. coli; settings: Escherichia coli; permeabilization of the outer membrane allowing luciferin to enter the cell; read-out: half maximum luminescence
Protocol: Using a technique described by J. M. Shupp, S. E. Travis, L. B. Price, R. F. Shand, P. Keim, RAPID BACTERIAL PERMEABILIZATION REAGENT USEFUL FOR ENZYME ASSAYS, Biotechniques, 1995, vol.
In this assay, E. coli containing an inducible luciferase coding plasmid was incubated with the inducing agent […], then treated with a lysis buffer containing either PMB or one of the cholic acid derivatives, and Triton X-100. Luciferin and ATP were then added. […] The concentrations of the membrane disrupting agents (PMB and the cholic acid derivatives) were varied, and the resulting luminescence was measured.

[7] = Table 11, with erythromycin (order of b151)
[8] = Table 12, with novobiocin (order of b151)
[9] = Table 12, with novobiocin (order of b151), Pseudomonas aeruginosa ATCC 27853
[10] = Table 13, with rifampicin (order of b151), Pseudomonas aeruginosa ATCC 27853^b (footnote b not given)
[11] = Escherichia coli, ATCC10798, Table 1, E. coli (ATCC 10798), read-out: MBC
[12] = Escherichia coli, ATCC10798, Table 1, E. coli (ATCC 10798), read-out: MIC
[13] = Table 9, Escherichia coli (ATCC 10798)
[14] = ATCC10798, Table 9, Escherichia coli (ATCC 10798), read-out: MBC
[15] = ATCC10798, Table 9, Escherichia coli (ATCC 10798), read-out: MIC

Row | MIC [5] | SMILES | FIC [1, 7] | concentration required for bacterial growth inhibition [1, 7] | FIC [1, 8] | concentration required for bacterial growth inhibition [1, 8] | FIC ([2]; ATCC27853) | concentration required for bacterial growth inhibition ([2]; ATCC27853) | MBC ([2]; ATCC27853) | concentration required to lower the MIC of erythromycin from 240 µg/mL to 5 µg/mL [2] | concentration required to lower the MIC of novobiocin from >500 µg/mL to 1 µg/mL [2] | concentration required for bacterial growth inhibition [2, 9] | FIC [2, 10] | MHC [3] | MBC (E. coli (ATCC 10798); [11]) | MIC (E. coli (ATCC 10798); [12]) | FIC [4] | concentration required for bacterial growth inhibition [4] | MBC [5] | EC50 [6] | MBC (E. coli (ATCC 10798); [14]) | further results
1 | 75 µg/mL (≈ 151 µM) | C[C@]12CC[C@@H](OCCCN)C[C@H]1C[C@@H](OCCCN)[C@@H]1[C@@H]2C[C@H](OCCCN)[C@]2(C)[C@@H](O)CC[C@@H]12 [Compound 106] | 0.088 | 7.1 µg/mL | 0.094 | 8.4 µg/mL | 0.22 | 16 µg/mL | – | – | – | 30 µg/mL | 0.17 | >100 µg/mL | – | – | 0.064 | 1.4 µg/mL | 92 µg/mL (≈ 186 µM) | – | > 200 µg/mL | MIC (E. coli (ATCC 10798); [15]): 140 µg/mL (≈ 282 µM)
2 | 41 µg/mL (≈ 67.4 µM) | CCCOCCC[C@@H](C)[C@H]1CC[C@H]2[C@@H]3[C@H](OCCCN)C[C@@H]4C[C@H](OCCCN)CC[C@]4(C)[C@H]3C[C@H](OCCCN)[C@]12C [Compound 112] | 0.019 | 0.20 µg/mL | 0.015 | 0.39 µg/mL | 0.59 | 1.0 µg/mL | – | – | – | 0.72 µg/mL | 0.15 | 5.9 µg/mL | – | – | 0.051 | 0.10 µg/mL | 45 µg/mL (≈ 74 µM) | – | 17 µg/mL (≈ 28 µM) | MIC (E. coli (ATCC 10798); [15]): 12 µg/mL (≈ 19.7 µM)

More lines, now with the values behind:

Row | SMILES | MIC [5] | FIC [1, 7] | concentration required for bacterial growth inhibition [1, 7] | FIC [1, 8] | concentration required for bacterial growth inhibition [1, 8] | FIC ([2]; ATCC27853) | concentration required for bacterial growth inhibition ([2]; ATCC27853) | MBC ([2]; ATCC27853) | concentration required to lower the MIC of erythromycin from 240 µg/mL to 5 µg/mL [2] | concentration required to lower the MIC of novobiocin from >500 µg/mL to 1 µg/mL [2] | concentration required for bacterial growth inhibition [2, 9] | FIC [2, 10] | MHC [3] | MBC (E. coli (ATCC 10798); [11]) | MIC (E. coli (ATCC 10798); [12]) | FIC [4] | concentration required for bacterial growth inhibition [4] | MBC [5] | EC50 [6] | MBC (E. coli (ATCC 10798); [14]) | further results
3 | C[C@H](CCCN(C)Cc1ccccc1)[C@H]1CC[C@H]2[C@@H]3[C@H](OCCN)C[C@@H]4C[C@H](OCCN)CC[C@]4(C)[C@H]3C[C@H](OCCN)[C@]12C [Compound 1] | 49 µg/mL (≈ 78.2 µM) | 0.19 | 3.6 µg/mL | 0.22 | 4.4 µg/mL | 0.29 | 6.6 µg/mL | 45 µg/mL | 8 µg/mL | 6 µg/mL | 3.9 µg/mL | 0.096 | 78 µg/mL | 34 µg/mL (≈ 54.2 µM) | 20 µg/mL (≈ 31.9 µM) | 0.089 | 0.84 µg/mL | > 50 µg/mL | – | – | –
4 | C[C@H](CCCN(C)Cc1ccccc1)[C@H]1CC[C@H]2[C@@H]3[C@H](OCCCN)C[C@@H]4C[C@H](OCCCN)CC[C@]4(C)[C@H]3C[C@H](OCCCN)[C@]12C [Compound 2] | 30 µg/mL (≈ 44.8 µM) | 0.17 | 2.0 µg/mL | 0.36 | 4.5 µg/mL | 0.25 | 2.4 µg/mL | 25 µg/mL | 4 µg/mL | 4 µg/mL | 2.9 µg/mL | 0.086 | 58 µg/mL | 16 µg/mL (≈ 23.9 µM) | 7 µg/mL (≈ 10.5 µM) | 0.079 | 0.39 µg/mL | 42 µg/mL (≈ 62.8 µM) | 7 µg/mL (≈ 10.5 µM) | – | –
5 | C[C@H](CCCN(C)Cc1ccccc1)[C@H]1CC[C@H]2[C@@H]3[C@H](OCCCNC(=N)N)C[C@@H]4C[C@H](OCCCNC(=N)N)CC[C@]4(C)[C@H]3C[C@H](OCCCNC(=N)N)[C@]12C [Compound 5] | 11 µg/mL (≈ 13.8 µM) | 0.23 | 0.46 µg/mL | – | – | 0.42 | 2.3 µg/mL | 10 µg/mL | 3 µg/mL | 6 µg/mL | – | – | 26 µg/mL | 4 µg/mL (≈ 5.03 µM) | 2 µg/mL (≈ 2.52 µM) | – | – | 50 µg/mL (≈ 62.9 µM) | – | – | –
6 | C[C@H](CCCO)[C@H]1CC[C@H]2[C@@H]3[C@H](OCCCN)C[C@@H]4C[C@H](OCCCN)CC[C@]4(C)[C@H]3C[C@H](OCCCN)[C@]12C [Compound 10] | 14 µg/mL (≈ 24.7 µM) | 0.037 | 0.87 µg/mL | 0.052 | 1.8 µg/mL | 0.13 | 2.1 µg/mL | – | 7 µg/mL | – | 5.3 µg/mL | 0.083 | 100 µg/mL | 60 µg/mL (≈ 106 µM) | 36 µg/mL (≈ 63.6 µM) | 0.063 | 0.55 µg/mL | 29 µg/mL (≈ 51.2 µM) | 33 µg/mL (≈ 58.3 µM) | – | MBC (E. coli (ATCC 10798); [13]): 60 µg/mL (≈ 106 µM); MIC (E. coli (ATCC 10798); [13]): 36 µg/mL (≈ 63.6 µM)
